Test results taken from PubChem BioAssay (NCI).
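At the GI50, growth is halved. TGI is the concentration that stops growth completely.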

Tests used:
Test in all cases: DTP human tumour cell line panel, 384-well format
[1] = test system: NCI-H23 lung
[2] = test system: A498 renal
[3] = test system: SF-268 CNS
[4] = test system: HCC-2998 colon
[5] = test system: MDA-MB-435 melanoma
[6] = test system: A549 NSCLC
[7] = test system: NCI-H522 lung
[8] = test system: HOP-62 NSCLC
[9] = test system: T-47D breast
[10] = test system: BT-549 breast
[11] = test system: COLO 205 colon
[12] = test system: 786-0 renal
[13] = test system: LOX IMVI melanoma
[14] = test system: OVCAR-5 ovarian
[15] = test system: HL-60(TB) leukemia
[16] = test system: PC-3 prostate
[17] = test system: NCI-H226 lung
[18] = test system: CCRF-CEM leukemia
[19] = test system: K-562 leukemia
[20] = test system: NCI-H322M lung
[21] = test system: EKVX NSCLC
[22] = test system: HCT-15 colon
[23] = test system: MDA-MB-231 breast
[24] = test system: ACHN renal
[25] = test system: SF-295 CNS
[26] = test system: SN12C renal
[27] = test system: SK-MEL-5 melanoma
[28] = test system: MOLT-4 leukemia
[29] = test system: OVCAR-4 ovarian
[30] = test system: SNB-19 CNS
[31] = test system: U251 glioblastoma
[32] = test system: SW-620 colon
[33] = test system: SNB-75 CNS
[34] = test system: SK-MEL-28 melanoma
[35] = test system: HCT-116 colon
[36] = test system: MCF7 breast
[37] = test system: IGROV1 ovarian
[38] = test system: NCI/ADR-RES ovarian
[39] = test system: UO-31 renal
[40] = test system: TK-10 renal
[41] = test system: HS 578T breast
[42] = test system: OVCAR-3 ovarian
[43] = test system: HT29 colon
[44] = test system: KM12 colon
[45] = test system: RXF 393 renal
[46] = test system: SK-MEL-2 melanoma
[47] = test system: UACC-257 melanoma

CC1(N)CCN(c2cccnc2NC(=O)c2nc(-c3ncccc3C(F)(F)F)cnc2N)CC1
GI50 [1]: 29.7 µM
TGI [1]: > 78.7 µM
GI50 [2]: 8.29 µM
TGI [2]: 22.8 µM
GI50 [3]: 19.9 µM
TGI [3]: 47 µM
GI50 [4]: 17.9 µM
TGI [4]: 33.4 µM
GI50 [5]: > 56.1 µM
TGI [5]: > 100 µM
GI50 [6]: 25 µM
TGI [6]: > 65 µM
GI50 [7]: 4.86 µM
TGI [7]: 18.8 µM
GI50 [8]: 28.8 µM
TGI [8]: > 77.6 µM
GI50 [9]: 11.6 µM
TGI [9]: 26.9 µM
GI50 [10]: 8.16 µM
TGI [10]: 20.6 µM
GI50 [11]: 17.9 µM
TGI [11]: > 54.6 µM
GI50 [12]: 8.25 µM
TGI [12]: 24 µM
GI50 [13]: 19 µM
TGI [13]: 33.6 µM
GI50 [14]: 16.8 µM
TGI [14]: 48.1 µM
GI50 [15]: 7.32 µM
TGI [15]: 18 µM
GI50 [16]: 16.7 µM
TGI [16]: 57 µM
GI50 [17]: 16.9 µM
TGI [17]: 47.4 µM
GI50 [18]: 15.4 µM
TGI [18]: 28.9 µM
GI50 [19]: 16.3 µM
TGI [19]: 31.3 µM
GI50 [20]: 23.7 µM
TGI [20]: > 60 µM
GI50 [21]: 7.15 µM
TGI [21]: 38.9 µM
GI50 [22]: 20.7 µM
TGI [22]: 56.3 µM
GI50 [23]: 20.5 µM
TGI [23]: 46.9 µM
GI50 [24]: 22.7 µM
TGI [24]: > 94.7 µM
GI50 [25]: > 49.3 µM
TGI [25]: > 72.6 µM
GI50 [26]: 21 µM
TGI [26]: 56.8 µM
GI50 [27]: 18.2 µM
TGI [27]: 34.3 µM
GI50 [28]: 12.8 µM
TGI [28]: 25.6 µM
GI50 [29]: > 69.4 µM
TGI [29]: > 100 µM
GI50 [30]: 27.8 µM
TGI [30]: > 76.7 µM
GI50 [31]: 13.6 µM
TGI [31]: 30.5 µM
GI50 [32]: 19.3 µM
TGI [32]: 60.6 µM
GI50 [33]: 17 µM
TGI [33]: 48.2 µM
GI50 [34]: 24.2 µM
TGI [34]: > 62.3 µM
GI50 [35]: 11.6 µM
TGI [35]: 26 µM
GI50 [36]: 24.6 µM
TGI [36]: > 54.9 µM
GI50 [37]: 3.28 µM
TGI [37]: 15 µM
GI50 [38]: > 100 µM
TGI [38]: > 100 µM
GI50 [39]: 31 µM
TGI [39]: > 100 µM
GI50 [40]: 7.5 µM
TGI [40]: 26.1 µM
GI50 [41]: 15.9 µM
TGI [41]: 33.2 µM
GI50 [42]: 15.1 µM
TGI [42]: 44.5 µM
GI50 [43]: 17.2 µM
TGI [43]: > 58.8 µM
GI50 [44]: 0.308 µM
TGI [44]: 20.2 µM
GI50 [45]: 12.5 µM
TGI [45]: 25.5 µM
GI50 [46]: 18.4 µM
TGI [46]: 47.2 µM
GI50 [47]: 7.77 µM
TGI [47]: 20.8 µM
